{
  "source": "patent US20250041175A1",
  "about": "“COMPOSITION FOR SMOOTHING THE SKIN AND/OR THE LIPS” (L V M H RECHERCHE, priority 2021, published 2025)",
  "assay": "Penetration of polyglycerols into the layers of the skin, 7T-MALDI-FT-ICR mass spectrometry imaging (MSI)",
  "assay_type": "in vitro ADME",
  "details": "sections of human skin, preliminary study",
  "data": [
    {"substance": "Polyglycerol-5", "values": [
      {"measurement": "depth of penetration at the surface layers of the skin (epidermis and superficial dermis)", "value": "penetrate less deeply than polyglycerol-3 or polyglycerol-4"}
    ]},
    {"substance": "polyglycerol-3", "values": [
      {"measurement": "depth of penetration at the surface layers of the skin (epidermis and superficial dermis)", "value": "reaches the superficial dermis very quickly"},
      {"measurement": "penetration speed of polyglycerols", "value": "penetrates rapidly"}
    ]},
    {"substance": "polyglycerol-4", "values": [
      {"measurement": "depth of penetration at the surface layers of the skin (epidermis and superficial dermis)", "value": "stationed in the superficial dermis"},
      {"measurement": "penetration speed of polyglycerols", "value": "penetrates more quickly"}
    ]}
  ]
}
